Test results from US11459375B2, “Cyclic peptides for the treatment of Graves' disease” (advanceCOR GmbH, priority 2017, dated 2022).
Peptide text beside a SMILES is read from it.

Assays:
[1] = test system: Ad-TSHR-immunized mice; experiment: retro-orbital fibrosis by digitized image analysis of orbital sections; format: in vivo, BALB/c mice; conditions: 1 mg/kg IV 4-weekly, Masson's stain
Procedure: FIG. 6 summarizes the results of histological investigation of orbital sections. […] The sections were taken at defined distances from the mouse bregma. Interstitial connective tissue was then stained in green (Masson's trichrome stain). For clarity, both HE stained sections (left panels) and Masson's stained sections (right panels) are shown next to each other. FIG. 6B: the effects of peptide therapy on severity of retro-orbital fibrosis were evaluated in histological sections of all available animals. The measurements were carried out in Ad-TSHR-immunized mice treated by either 4-weekly injections with vehicle (0.9% NaCl, “Graves' no therapy”, n=9 mice), or administrations of 1 mg/kg body weight of peptide 836 (11 mice) or TSHR-Fc (11 mice). […] The mean total fibrosis volumes of each right and left orbita, as assessed by digitized image analysis of all sections, and consecutive integrations, are shown with SEM. […]
After euthanasia, dissection of the thyroid glands was performed under a stereomicroscope, as described before (22). […] Thyroid volumes (mm^3) were calculated from the sum of the areas of each section over the whole cutting region. Myocardial volumes (mm^3) were calculated in a similar way as described for thyroid glands from the sum of the areas of each section over whole cutting region (5 to 6 slides, depending on respective size of the hearts). […]

[2] = test system: Ad-TSHR-immunized mice; experiment: clinical signs of allergic reaction during therapy of immunized mice; format: in vivo, BALB/c mice; conditions: 1 mg/kg IV, had to be treated with clemastin
Procedure: The study protocol used three 3-weekly immunizations (“initiation”) and followed by a “maintenance” phase with further regular 4-weekly boosts until the 9th immunisation, as described before (22). Mice were randomly assigned to therapeutic groups. Therapy (either 1 mg/kg body weight peptides or 0.9% NaCl vehicle control) was given 1 week after the 4th immunization by IV injection into a tail vein, and then continued at 4-weekly intervals, as described before for the treatment of anti-β1AR (16). The fusion protein TSHR-Fc was given IV at identical times at doses of 1 mg/kg, but had to be applied together with the histamine receptor blocker clemastin (Tavegil®) at a dose of 0.02 mg per mouse (25 g body weight) to avoid clinical symptoms of allergic reaction, which had been observed in initial pilot studies of TSHR-Fc administration in mice.

Question: With `CC[C@H](C)[C@@H]1NC(=O)[C@H](C(C)C)NC(=O)[C@H]([C@@H](C)O)NC(=O)[C@H](CC(C)C)NC(=O)[C@H](Cc2ccc(O)cc2)NC(=O)[C@H](CCCCN)NC(=O)[C@H](CC(N)=O)NC(=O)[C@H](CCCCN)NC(=O)[C@H](CC(N)=O)NC(=O)[C@H](CC(C)C)NC(=O)[C@H](Cc2ccc(O)cc2)NC(=O)[C@H](C(C)C)NC(=O)[C@H](C)NC(=O)[C@H](CC(=O)O)NC(=O)[C@H](CC(C)C)NC(=O)[C@H](CCCCN)NC(=O)[C@H]([C@@H](C)O)NC(=O)CNC(=O)[C@H](CC(N)=O)NC(=O)[C@H](Cc2ccccc2)NC(=O)[C@H](C)NC(=O)[C@H](Cc2ccc(O)cc2)NC(=O)CNC(=O)[C@H](CC(=O)O)NC1=O` [peptide 836] (cyclo(GYAFNGTKLDAVYLNKNKYLTVID)) as the compound, how does the retro-orbital fibrosis [1] read?
Answer: completely reversed

Question: “TSHR-Fc: fusion protein: first 289 amino acids of human TSH receptor (A-subunit), GGR linker and Fc portion of human IgG2” was tested. Which “clinical signs of allergic reactions” value [2] did it give?
Answer: clinical signs of allergic reactions
